The values that follow come from patent publication US10370339B2, “N-Methylbenzimidazoles as mIDH1 inhibitors” (BAYER PHARMA AKTIENGESELLSCHAFT, priority 2015, dated 2019).

A word on the IC50: it is the concentration that inhibits the measured activity by half. A higher IC50 goes with lower potency.

Chain of IDH1 R132H enzyme (O75874 whole entry R132H): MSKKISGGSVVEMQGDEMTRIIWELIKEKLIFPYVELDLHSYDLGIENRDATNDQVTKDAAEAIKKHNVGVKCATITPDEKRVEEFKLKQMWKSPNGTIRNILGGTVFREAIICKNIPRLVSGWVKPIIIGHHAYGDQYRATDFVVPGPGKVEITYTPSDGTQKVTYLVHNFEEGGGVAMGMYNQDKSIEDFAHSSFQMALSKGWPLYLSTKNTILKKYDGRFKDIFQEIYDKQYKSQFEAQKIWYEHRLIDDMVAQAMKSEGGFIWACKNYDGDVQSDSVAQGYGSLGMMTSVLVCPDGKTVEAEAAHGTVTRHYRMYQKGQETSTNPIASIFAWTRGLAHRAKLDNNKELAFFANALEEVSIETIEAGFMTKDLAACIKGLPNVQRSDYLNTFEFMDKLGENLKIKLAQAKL
Chain of Mutant IDH1 (LN229 R132H cells) (O75874 whole entry R132H): as above

The target of the first experiment is IDH1 R132H enzyme (Homo sapiens (Human), UniProt O75874, R132H). Kind of experiment: Mutant IDH1 R132H biochemical assay. The following applies: NADPH consumption, luminescent readout; 1.5 nM enzyme, 1 μM NADPH, 250 μM α-KG, 30 minutes, 32° C. Here is the method:
Mutant IDH1 R132H Biochemical Assay mIDH1 catalyzes the NADPH-dependent reduction of alpha-ketoglutarate (a-KG) to (2R)-2-hydroxyglutarate (2-HG). NADPH consumption was measured by luminescent readout.
The biochemical reactions were performed at 32° C. in 384-well plates using a reaction volume of 41 μL and the following assay buffer conditions: 50 mM Tris pH 7.5, 100 mM NaCl, 20 mM MgCl2, 0.05% BSA, 0.01% Brij, 1 μM NADPH, and 250 μM α-KG. The IDH1 R132H enzyme was used in a final concentration of 1.5 nM. Test compounds were used in a concentration range between 0.002 and 10 μM. The final DMSO concentration was 2.4%.
The reaction was incubated for 30 minutes, then 40 μL of detection mix (0.75 μg/ml Luciferase, 0.02 U/ml Oxidoreductase, 4 μg/mL FMN, 2 μL/ml decanal/ethanol, 50 mM Tris pH 7.5, 0.5% Glycerin, 0.01% Tween-20, 0.05% BSA) was added. Luminescence was measured on a luminescent reader (10 seconds measuring time, 1 second integration period, 30% sensitivity). The decrease in luminescence is proportional to mIDH1 activity. IC50 values are determined by interpolation from plots of relative luminescence versus inhibitor concentration.
Regarding `COC(=O)c1ccc2c(c1)nc(Nc1ccc(OC(F)(F)F)cc1)n2[C@@H]1C[C@H](C)CC[C@H]1C(C)C` [Example 2-1, methyl 1-[(1R,2S,5R)-2-isopropyl-5-methylcyclohexyl]-2-{[4-(trifluoromethoxy)-phenyl]amino}-1H-benzimidazole-5-carboxylate], half-maximal inhibition (IC50) was put at 120 nM.
With `COC(=O)c1ccc2c(c1)nc(Nc1ccc(C(C)C)cc1)n2[C@@H]1C[C@H](C)CC[C@H]1C(C)C` [Example 2-2], half-maximal inhibition (IC50) required 65 nM.
`COC(=O)c1ccc2c(c1)nc(Nc1ccc(OC(C)C)cc1)n2[C@@H]1C[C@H](C)CC[C@H]1C(C)C` [Example 2-3] showed an IC50 of 200 nM.
In turn, `COC(=O)c1cc2nc(Nc3ccc(C(C)C)cc3)n([C@@H]3C[C@H](C)CC[C@H]3C(C)C)c2cc1C` [Example 2-5] showed a half-maximal inhibitory concentration (IC50) of 40 nM.
Turning to `COC(=O)c1cc2nc(Nc3ccc(OC(C)C)cc3)n([C@@H]3C[C@H](C)CC[C@H]3C(C)C)c2cc1C` [Example 2-6], the IC50 was 220 nM.
Turning to `COC(=O)c1cc2nc(Nc3ccc(OC(F)(F)F)cc3)n([C@@H]3C[C@H](C)CC[C@H]3C(C)C)c2cc1OC` [Example 2-7], the midpoint of inhibition, the IC50, lay at 100 nM.
On to `COC(=O)c1cc2nc(Nc3ccc(C(C)C)cc3)n([C@@H]3C[C@H](C)CC[C@H]3C(C)C)c2cc1OC` [Example 2-8], for which the IC50 was found to be 130 nM.
The same measure, in the same setting: next, `COC(=O)c1cc2nc(Nc3ccc(OC(C)C)cc3)n([C@@H]3C[C@H](C)CC[C@H]3C(C)C)c2cc1OC` [Example 2-9]: 280 nM; `COC(=O)Cc1ccc2c(c1)nc(Nc1ccc(OC(F)(F)F)cc1)n2[C@@H]1C[C@H](C)CC[C@H]1C(C)C` [Example 2-10]: 120 nM; `COC(=O)Cc1ccc2c(c1)nc(Nc1ccc(C(C)C)cc1)n2[C@@H]1C[C@H](C)CC[C@H]1C(C)C` [Example 2-11]: 80 nM.
Consider `COC(=O)Cc1ccc2c(c1)nc(Nc1ccc(OC(C)C)cc1)n2[C@@H]1C[C@H](C)CC[C@H]1C(C)C` [Example 2-12], for which the IC50 was 300 nM.
The same measure, in the same setting: next, `COC(=O)Cc1cc2nc(Nc3ccc(OC(F)(F)F)cc3)n([C@@H]3C[C@H](C)CC[C@H]3C(C)C)c2cc1C` [Example 2-13]: 45 nM; `COC(=O)Cc1cc2nc(Nc3ccc(C(C)C)cc3)n([C@@H]3C[C@H](C)CC[C@H]3C(C)C)c2cc1C` [Example 2-14]: 35 nM; `COC(=O)Cc1cc2nc(Nc3ccc(OC(C)C)cc3)n([C@@H]3C[C@H](C)CC[C@H]3C(C)C)c2cc1C` [Example 2-15]: 80 nM.
The same measure, in the same setting: in the case of `COC(=O)Cc1cc2nc(Nc3ccc(OC(F)(F)F)cc3)n([C@@H]3C[C@H](C)CC[C@H]3C(C)C)c2cc1OC` [Example 2-16] it was 70 nM.
The compound `COC(=O)Cc1cc2nc(Nc3ccc(C(C)C)cc3)n([C@@H]3C[C@H](C)CC[C@H]3C(C)C)c2cc1OC` [Example 2-17] returned a concentration for half-maximal inhibition (IC50) of 68 nM.
As to `COC(=O)Cc1cc2nc(Nc3ccc(OC(C)C)cc3)n([C@@H]3C[C@H](C)CC[C@H]3C(C)C)c2cc1OC` [Example 2-18], the half-inhibitory concentration (IC50) stood at 120 nM.
In the case of `COC(=O)CCc1ccc2c(c1)nc(Nc1ccc(OC(F)(F)F)cc1)n2[C@@H]1C[C@H](C)CC[C@H]1C(C)C` [Example 2-19], the 50% inhibitory concentration (IC50) amounted to 95 nM.
With `COC(=O)CCc1ccc2c(c1)nc(Nc1ccc(C(C)C)cc1)n2[C@@H]1C[C@H](C)CC[C@H]1C(C)C` [Example 2-20], inhibition was half-maximal at 130 nM (IC50).
Take `COC(=O)CCc1ccc2c(c1)nc(Nc1ccc(OC(C)C)cc1)n2[C@@H]1C[C@H](C)CC[C@H]1C(C)C` [Example 2-21]: the IC50 was 380 nM.
As for `CC(C)[C@@H]1CC[C@@H](C)C[C@H]1n1c(Nc2ccc(OC(F)(F)F)cc2)nc2cc(C(=O)O)ccc21` [Example 2-22, 1-[(1R,2S,5R)-2-isopropyl-5-methylcyclohexyl]-2-{[4-(trifluoromethoxy)phenyl]-amino}-1H-benzimidazole-5-carboxylic acid], it took 4 nM to reach half-maximal inhibition (IC50).
Regarding `CC(C)c1ccc(Nc2nc3cc(C(=O)O)ccc3n2[C@@H]2C[C@H](C)CC[C@H]2C(C)C)cc1` [Example 2-23], 6.3 nM corresponded to half-maximal inhibition (IC50).
Turning to `CC(C)Oc1ccc(Nc2nc3cc(C(=O)O)ccc3n2[C@@H]2C[C@H](C)CC[C@H]2C(C)C)cc1` [Example 2-24], the IC50 turned out to be 13 nM.
Still for that read-out and setting: in the case of `Cc1cc2c(cc1C(=O)O)nc(Nc1ccc(OC(F)(F)F)cc1)n2[C@@H]1C[C@H](C)CC[C@H]1C(C)C` [Example 2-25] it was 8 nM; in that of `Cc1cc2c(cc1C(=O)O)nc(Nc1ccc(C(C)C)cc1)n2[C@@H]1C[C@H](C)CC[C@H]1C(C)C` [Example 2-26], 7.5 nM.
`Cc1cc2c(cc1C(=O)O)nc(Nc1ccc(OC(C)C)cc1)n2[C@@H]1C[C@H](C)CC[C@H]1C(C)C` [Example 2-27] came in with an IC50 of 15 nM.
In turn, `COc1cc2c(cc1C(=O)O)nc(Nc1ccc(OC(F)(F)F)cc1)n2[C@@H]1C[C@H](C)CC[C@H]1C(C)C` [Example 2-28] returned an IC50 of 16 nM.
For the compound `CC(C)c1ccc(Nc2nc3cc(CC(=O)O)ccc3n2[C@@H]2C[C@H](C)CC[C@H]2C(C)C)cc1` [Example 2-32], it took 11 nM to reach half-maximal inhibition (IC50).
Take `CC(C)Oc1ccc(Nc2nc3cc(CC(=O)O)ccc3n2[C@@H]2C[C@H](C)CC[C@H]2C(C)C)cc1` [Example 2-33]: the IC50 worked out at 45 nM.
In turn, `Cc1cc2c(cc1CC(=O)O)nc(Nc1ccc(OC(F)(F)F)cc1)n2[C@@H]1C[C@H](C)CC[C@H]1C(C)C` [Example 2-34] yielded a half-maximal inhibitory concentration (IC50) of 6.3 nM.
`Cc1cc2c(cc1CC(=O)O)nc(Nc1ccc(C(C)C)cc1)n2[C@@H]1C[C@H](C)CC[C@H]1C(C)C` [Example 2-35] showed a concentration for half-maximal inhibition (IC50) of 8.3 nM.
`Cc1cc2c(cc1CC(=O)O)nc(Nc1ccc(OC(C)C)cc1)n2[C@@H]1C[C@H](C)CC[C@H]1C(C)C` [Example 2-36] showed an IC50 of 30 nM.
`COc1cc2c(cc1CC(=O)O)nc(Nc1ccc(OC(F)(F)F)cc1)n2[C@@H]1C[C@H](C)CC[C@H]1C(C)C` [Example 2-37]: half-maximal inhibition (IC50) was put at 23 nM.
For the compound `COc1cc2c(cc1CC(=O)O)nc(Nc1ccc(C(C)C)cc1)n2[C@@H]1C[C@H](C)CC[C@H]1C(C)C` [Example 2-38], the 50% inhibitory concentration (IC50) is 12 nM.
In turn, `COc1cc2c(cc1CC(=O)O)nc(Nc1ccc(OC(C)C)cc1)n2[C@@H]1C[C@H](C)CC[C@H]1C(C)C` [Example 2-39] returned a concentration for half-maximal inhibition (IC50) of 70 nM.
Consider `CC(C)[C@@H]1CC[C@@H](C)C[C@H]1n1c(Nc2ccc(OC(F)(F)F)cc2)nc2cc(CCC(=O)O)ccc21` [Example 2-40], for which the IC50 stood at 15 nM.
`CC(C)c1ccc(Nc2nc3cc(CCC(=O)O)ccc3n2[C@@H]2C[C@H](C)CC[C@H]2C(C)C)cc1` [Example 2-41] yielded an IC50 of 12 nM.
In turn, `CC(C)Oc1ccc(Nc2nc3cc(CCC(=O)O)ccc3n2[C@@H]2C[C@H](C)CC[C@H]2C(C)C)cc1` [Example 2-42] gave a concentration for half-maximal inhibition (IC50) of 12 nM.
As to `COC(=O)CCc1cc2nc(Nc3ccc(OC(F)(F)F)cc3)n([C@@H]3C[C@H](C)CC[C@H]3C(C)C)c2cc1OC` [Example 2-43, methyl 3-(1-[(1R,2S,5R)-2-isopropyl-5-methylcyclohexyl]-6-methoxy-2-{[4-(tri-fluoromethoxy)phenyl]amino}-1H-benzimidazol-5-yl)propanoate], 190 nM corresponded to half-maximal inhibition (IC50).
For the compound `COC(=O)CCc1cc2nc(Nc3ccc(OC(C)C)cc3)n([C@@H]3C[C@H](C)CC[C@H]3C(C)C)c2cc1OC` [Example 2-44], the half-inhibitory concentration (IC50) is 620 nM.
The same measure, in the same setting: in the case of `COC(=O)CCc1cc2nc(Nc3ccc(C(C)C)cc3)n([C@@H]3C[C@H](C)CC[C@H]3C(C)C)c2cc1OC` [Example 2-45] it was 180 nM; in that of `COc1cc2c(cc1CCC(=O)O)nc(Nc1ccc(OC(F)(F)F)cc1)n2[C@@H]1C[C@H](C)CC[C@H]1C(C)C` [Example 2-46, 3-(1-[(1R,2S,5R)-2-isopropyl-5-methylcyclohexyl]-6-methoxy-2-{[4-(trifluoromethoxy)phenyl]amino}-1H-benzimidazol-5-yl)propanoic acid], 15 nM.
`COc1cc2c(cc1CCC(=O)O)nc(Nc1ccc(OC(C)C)cc1)n2[C@@H]1C[C@H](C)CC[C@H]1C(C)C` [Example 2-47]: half-maximal inhibition (IC50) was put at 2800 nM.

The next experiment has as its target Mutant IDH1 (LN229 R132H cells) (Homo sapiens (Human), UniProt O75874, R132H). As to the kind of experiment: Mutant IDH1 cellular assay (2-HG levels in medium of LN229 R132H cells). It is filed as cell-based. The following applies: 2-HG production in LN229 R132H cells, 24 hours incubation, fluorescence readout. Here is the method: Levels of (2R)-2-hydroxyglutarate (2HG) were measured in medium of a cell line with overexpression of mutated isocitrate dehydrogenase (mIDH) protein. mIDH catalyzes the NADPH-dependent reduction of alpha-ketoglutarate to 2-HG. Cells (LN229 R132H, Mohrenz et al., Apoptosis (2013) 18:1416-1425) were grown in DMEM containing 10% FCS. They were harvested by trypsin and seeded into 96-well plates. Cells were incubated overnight at 37° C. in 5% CO2. The next day test compounds were added to each cell well. The final concentration of DMSO was 0.1% and DMSO controls were included. The plates were then placed in an incubator for 24 hours.
2-HG was measured according to Balss et al. (Acta Neuropathol (2012) 124: 883-891). Briefly, HClO4 was added to each well and the plates were centrifuged. Aliquots are removed and incubated with hydroxyglutarate dehydrogenase (HGDH), diaphorase, NAD+, and resazurin. The conversion of resazurin to resorufin was detected by fluorescence spectroscopy at Ex 540 nm Em 600 nm. The increase in fluorescence is proportional to 2-HG production. IC50 values are determined by interpolation from plots of relative fluorescence vs inhibitor concentration.
Compound `COc1cc2c(cc1C(=O)O)nc(Nc1ccc(OC(F)(F)F)cc1)n2[C@@H]1C[C@H](C)CC[C@H]1C(C)C` [Example 2-28] came in with an IC50 of 38 nM.
Regarding `COc1cc2c(cc1C(=O)O)nc(Nc1ccc(OC(C)C)cc1)n2[C@@H]1C[C@H](C)CC[C@H]1C(C)C` [Example 2-30], the concentration for half-maximal inhibition (IC50) amounted to 84 nM.
